The subject of one data set is influenza A/HK/68. Type of data set: in vivo, ICR mice.
The test system of another data set is E.G7 (OVA) cells. The conditions noted are these: s.c. 25 μg OVA in AGP preparation, spleen cells 21 days later.
Another data set concerns TNF-α. The data set is described as follows: Cytokine induction in human whole blood ex vivo culture: TNF-α (ELISA). The conditions noted are these: 4 hr. Type of data set: cell-based. The method, then:
(§1) AGP compounds were solubilized in 10% EtOH-water and diluted to various concentrations. Fifty μl of each dilution were added to 450 μl of whole human blood. Controls were treated with culture media (RPMI). The reaction mixture was incubated at 37° C. for 4 hr with constant mixing on a rotator. Sterile PBS (1.5 ml) was added to the reaction mixture, the cells were centrifuged and the supernatents removed for cytokine testing. The concentration of TNF-α and IL-1β in each supernatent was determined using immunoassay ELISA kits from R&D Systems.
On the technique in general: An ELISA detects its analyte on a solid surface through an enzyme-linked reagent.

Another data set has as its system tetanus toxoid. The conditions noted are these: mouse, in vivo, sc.
A further data set concerns IL-1β. Put plainly: Cytokine induction in human whole blood ex vivo culture: IL-1β (ELISA). The class given is cell-based. The conditions noted are these: 4 hr. The method, then: as §1
[1] abbreviates: 25 μg AGP + 1 HAU FI-Flu in 0.2% TEoA, once, bled day 14, Table 11.

Where two headings read alike, the source gives them in different places.

We go through eleven substances from patent US7541020B2, “Aminoalkyl glucosaminide phosphate compounds and their use as adjuvants and immunoeffectors” (priority 1997, dated 2009).

Take “3-Hydroxy-(S)-2-[(R)-3-heptanoyloxytetradecanoylamino]propyl 2-Deoxy-4-O-phosphono-2-[(R)-3-heptanoyloxytetradecanoylamino]-3-O-[(R)-3-heptanoyloxytetradecanoyl]-β-D-glucopyranoside Triethylammonium Salt [B8]”: in the data set on influenza A/HK/68 (mouse, in vivo), the “Percent Survival” value is listed as 80%, the “Titer−1 IgG1” value worked out at 3200, the “Titer−1 IgG2a” value was 400 and the “Titer−1 IgG2b” value was found to be 1600. In addition, the “Titer−1 Total IgG” value with influenza A/HK/68 (mouse, in vivo) is reported as 6400. Further, the “% Cytotoxicity” value with E.G7 (OVA) cells (E:T 12.5:1) was found to be 15%. Also, the “% Cytotoxicity” value in the data set on E.G7 (OVA) cells (E:T 25:1) is listed as 20%. For the same substance, the “% Cytotoxicity” value in the data set on E.G7 (OVA) cells (E:T 50:1) stood at 36%.
Regarding “N-[(R)-3-Decanoyloxytetradecanoyl]-O-[2-deoxy-4-O-phosphono-2-[(R)-3-decanoyloxytetradecanoylamino]-3-O-[(R)-3-hexanoyloxytetradecanoyl]-α-D-glucopyranosyl]-L-serine Triethylammonium Salt [B35]”, the “% Cytotoxicity” value came to 2% in the data set on E.G7 (OVA) cells (E:T 12.5:1), 5% with E.G7 (OVA) cells (E:T 25:1) and 9% with E.G7 (OVA) cells (E:T 50:1).
For “N-[(R)-3-Decanoyloxytetradecanoyl]-O-[2-deoxy-4-O-phosphono-2-[(R)-3-hexanoyloxytetradecanoylamino]-3-O-[(R)-3-decanoyloxytetradecanoyl]-α-D-glucopyranosyl]-L-serine Triethylammonium Salt [B36]” the same measures were 4%, 7% and 13%.
For “N-[(R)-3-Decanoyloxytetradecanoyl]-O-[2-deoxy-4-O-phosphono-2-[(R)-3-hexanoyloxytetradecanoylamino]-3-O-[(R)-3-hexanoyloxytetradecanoyl]-α-D-glucopyranosyl]-L-serine Triethylammonium Salt [B40]” the same measures were 8%, 12% and 20%.
“N-[(R)-3-Heptanoyloxytetradecanoyl]-O-[2-deoxy-4-O-phosphono-2-[(R)-3-heptanoyloxytetradecanoylamino]-3-O-[(R)-3-heptanoyloxytetradecanoyl]-β-D-glucopyranosyl]-L-serine Triethylammonium Salt [B18]”: in the data set with influenza A/HK/68 (setting [1]), the “Titer^−1 IgG1” value amounted to 800, the “Titer^−1 IgG2a” value is reported as 800, the “Titer^−1 IgG2b” value is on record as 400 and the “Titer^−1 Total IgG” value is 800. The “Percent Survival” value in the data set with influenza A/HK/68 ([…], mortality 21 days, Table 11) came to 20%. Also, the “% Cytotoxicity” value in the data set on E.G7 (OVA) cells (E:T 12.5:1) is 15%. The “% Cytotoxicity” value with E.G7 (OVA) cells (E:T 25:1) came out at 20%. For the same substance, the “% Cytotoxicity” value in the data set with E.G7 (OVA) cells (E:T 50:1) is recorded as 36%.
Take “N-[(R)-3-Hexanoyloxytetradecanoyl]-O-[2-deoxy-4-O-phosphono-2-[(R)-3-decanoyloxytetradecanoylamino]-3-O-[(R)-3-decanoyloxytetradecanoyl]-α-D-glucopyranosyl]-L-serine Triethylammonium Salt [B37]”: the “% Cytotoxicity” value came to 6% in the data set on E.G7 (OVA) cells (E:T 12.5:1), 8% in the data set on E.G7 (OVA) cells (E:T 25:1) and 12% in the data set with E.G7 (OVA) cells (E:T 50:1).
On to “N-[(R)-3-Hexanoyloxytetradecanoyl]-O-[2-deoxy-4-O-phosphono-2-[(R)-3-decanoyloxytetradecanoylamino]-3-O-[(R)-3-hexanoyloxytetradecanoyl]-α-D-glucopyranosyl]-L-serine Triethylammonium Salt [B39]”, for which the “% Cytotoxicity” value with E.G7 (OVA) cells (E:T 12.5:1) worked out at 13%; with E.G7 (OVA) cells (E:T 25:1) it was 21%; in the data set with E.G7 (OVA) cells (E:T 50:1) it was 33%.
For “N-[(R)-3-Hexanoyloxytetradecanoyl]-O-[2-deoxy-4-O-phosphono-2-[(R)-3-hexanoyloxytetradecanoylamino]-3-O-[(R)-3-decanoyloxytetradecanoyl]-α-D-glucopyranosyl]-L-serine Triethylammonium Salt [B38]” the same measures were 16%, 25% and 38%.
Turning to “N-[(R)-3-Hydroxytetradecanoyl]-O-[2-deoxy-4-O-phosphono-2-[(R)-3-dodecanoyloxytetradecanoylamino]-3-O-[(R)-3-tetradecanoyloxytetradecanoyl]-α-D-glucopyranosyl]-L-serine Triethylammonium Salt [B43]”, the results for the “% Cytotoxicity” value in the data set with E.G7 (OVA) cells (E:T 12.5:1), with E.G7 (OVA) cells (E:T 25:1) and in the data set on E.G7 (OVA) cells (E:T 50:1) were 6%, 12% and 19%, respectively.
With “N-[(R)-3-Nonanoyloxytetradecanoyl]-O-[2-deoxy-4-O-phosphono-2-[(R)-3-nonanoyloxytetradecanoylamino]-3-O-[(R)-3-nonanoyloxytetradecanoyl]-β-D-glucopyranosyl]-L-serine Triethylammonium Salt [B16]”, the TNF-α with TNF-α (Dosage 500 ng/ml, Table 17) was 55 pg/mL; with TNF-α (Dosage 1000 ng/ml, Table 15) it was 155 pg/mL; with TNF-α (Dosage 1000 ng/ml, Table 17), 72 pg/mL; in the data set on TNF-α (Dosage 5000 ng/ml, Table 15), 277 pg/mL; in the data set on TNF-α (Dosage 5000 ng/ml, Table 17) it was 114 pg/mL; in the data set on TNF-α (Dosage 10,000 ng/ml, Table 15) it was 291 pg/mL. The same substance displayed a TNF-α with TNF-α (Dosage 10,000 ng/ml, Table 17) of 121 pg/mL. Also, in the data set on influenza A/HK/68 (mouse, in vivo), the “Percent Survival” value is given as 40%. Also, the “Titer^−1 IgG1” value with influenza A/HK/68 (mouse, in vivo) came to 1600. Also, the “Titer^−1 IgG2a” value with influenza A/HK/68 (mouse, in vivo) is 100. For the same substance, the “Titer^−1 IgG2b” value in the data set on influenza A/HK/68 (mouse, in vivo) turned out to be 800. Further, in the data set with influenza A/HK/68 (mouse, in vivo), the “Titer^−1 Total IgG” value is listed as 800. Moreover, in the data set with tetanus toxoid, the “Anti-tetanus toxoid IgG2a T/C” value is recorded as 66.8. The “Anti-tetanus toxoid IgG2a titer” value in the data set on tetanus toxoid is reported as 1135. Also, the “Anti-tetanus toxoid IgG2b T/C” value in the data set with tetanus toxoid came to 104. Besides, the “Anti-tetanus toxoid IgG2b titer” value with tetanus toxoid was found to be 6880. Further, in the data set with tetanus toxoid, the “Anti-tetanus toxoid IgM T/C” value is recorded as 1.6. The “Anti-tetanus toxoid IgM titer” value in the data set with tetanus toxoid stood at 2560. Besides, the “% Cytotoxicity” value with E.G7 (OVA) cells (E:T 12.5:1) is on record as 20%; with E.G7 (OVA) cells (E:T 25:1), 29%; in the data set with E.G7 (OVA) cells (E:T 50:1), 42%. Besides, the IL-1β turned out to be 17.1 pg/mL in the data set on IL-1β (Dosage 500 ng/ml, Table 17); 39 pg/mL with IL-1β (Dosage 1000 ng/ml, Table 15); 19.5 pg/mL with IL-1β (Dosage 1000 ng/ml, Table 17); 53 pg/mL in the data set with IL-1β (Dosage 5000 ng/ml, Table 15); 34.0 pg/mL in the data set with IL-1β (Dosage 5000 ng/ml, Table 17); 55 pg/mL in the data set with IL-1β (Dosage 10,000 ng/ml, Table 15). This substance also returned an IL-1β in the data set with IL-1β (Dosage 10,000 ng/ml, Table 17) of 41.0 pg/mL.
With “N-[(R)-3-Undecanoyloxytetradecanoyl]-O-[2-deoxy-4-O-phosphono-2-[(R)-3-undecanoyloxytetradecanoylamino]-3-O-[(R)-3-undecanoyloxytetradecanoyl]-β-D-glucopyranosyl]-L-serine Triethylammonium Salt [B13]”, the TNF-α is 302 pg/mL in the data set on TNF-α (Dosage 100 ng/ml, Table 17); 411 pg/mL in the data set on TNF-α (Dosage 500 ng/ml, Table 17); 740 pg/mL in the data set with TNF-α (Dosage 1000 ng/ml, Table 15); 478 pg/mL with TNF-α (Dosage 1000 ng/ml, Table 17); 716 pg/mL in the data set with TNF-α (Dosage 5000 ng/ml, Table 15); 592 pg/mL in the data set with TNF-α (Dosage 5000 ng/ml, Table 17). Moreover, the TNF-α was determined as 775 pg/mL in the data set on TNF-α (Dosage 10,000 ng/ml, Table 15) and 583 pg/mL in the data set on TNF-α (Dosage 10,000 ng/ml, Table 17). Moreover, the “Percent Survival” value in the data set on influenza A/HK/68 (mouse, in vivo) is 50%. For the same substance, the “Titer^−1 IgG1” value with influenza A/HK/68 (mouse, in vivo) was determined as 800. The “Titer^−1 IgG2a” value in the data set with influenza A/HK/68 (mouse, in vivo) is on record as 400. Further, the “Titer^−1 IgG2b” value with influenza A/HK/68 (mouse, in vivo) came to 800. For the same substance, the “Titer^−1 Total IgG” value in the data set with influenza A/HK/68 (mouse, in vivo) was 1600. Further, in the data set on tetanus toxoid, the “Anti-tetanus toxoid IgG2a T/C” value is 220. Further, in the data set on tetanus toxoid, the “Anti-tetanus toxoid IgG2a titer” value is on record as 3740. Further, the “Anti-tetanus toxoid IgG2b T/C” value with tetanus toxoid is over 208. The “Anti-tetanus toxoid IgG2b titer” value in the data set with tetanus toxoid is >13,760. Moreover, the “Anti-tetanus toxoid IgM T/C” value with tetanus toxoid was 3.9. The “Anti-tetanus toxoid IgM titer” value in the data set on tetanus toxoid worked out at 6080. In addition, the results for the “% Cytotoxicity” value with E.G7 (OVA) cells (E:T 12.5:1), in the data set with E.G7 (OVA) cells (E:T 25:1) and in the data set on E.G7 (OVA) cells (E:T 50:1) were 10%, 15% and 28%, respectively. Moreover, the IL-1β in the data set on IL-1β (Dosage 100 ng/ml, Table 17) amounted to 261 pg/mL; with IL-1β (Dosage 500 ng/ml, Table 17), 352 pg/mL; in the data set on IL-1β (Dosage 1000 ng/ml, Table 15), 177 pg/mL; in the data set with IL-1β (Dosage 1000 ng/ml, Table 17), 327 pg/mL; in the data set on IL-1β (Dosage 5000 ng/ml, Table 15), 187 pg/mL; in the data set with IL-1β (Dosage 5000 ng/ml, Table 17), 390 pg/mL. Also, the IL-1β result was “THTC*” in the data set with IL-1β (Dosage 10,000 ng/ml, Table 15) and 282 pg/mL in the data set on IL-1β (Dosage 10,000 ng/ml, Table 17).
